From patent publication US10456414B2, “Methods for treating HCV” (priority 2011, dated 2019)
“And” between values parts separate entries of the source, which are not always exact repeats. Equal values may be shown once. Read-outs that look alike come from different tables or passages of the source.

Key:
genotype 1b replicon RNA = experiment: Replicon RNA suppression, 6 day assay, QRT-PCR
HCV genotype 1a replicon [1] = experiment: Antiviral combination studies with Compound 10, MacSynergy II; conditions: in combination with Compound 10
[2] = tested on: Huh-7 cells carrying a HCV genotype 1a replicon; experiment: Cytotoxicity combination studies with Compound 4, MacSynergy II
[3] = HCV genotype 1a replicon assay, CC50 by calcein AM (Biological Example 3); format: cell-based; conditions: human, Huh-7 cells carrying a HCV genotype 1a replicon, genotype 1a replicon cells
Method: The CC50 assay was performed first.

[4] = tested on: Genotype 1 b replicon cells; experiment: Compound combination replicon cure assay, colony formation; conditions: 6 days treatment at the same concentrations, then G418 for 14 days
[5] = HCV genotype 1a replicon assay, CC50 by calcein AM (Biological Example 8); conditions: human, Huh-7 cells carrying an HCV genotype 1a replicon
HCV genotype 1a replicon [6] = experiment: HCV genotype 1a replicon assay, EC50 (Biological Example 3); format: cell-based; conditions: Hepatitis C virus, 72 h, 3 days, average ± standard deviation, read-out: EC50
HCV genotype 1a replicon [7] = experiment: HCV genotype 1a replicon assay, EC50 (Biological Example 8); conditions: Hepatitis C virus, 72 h
[8] = tested on: HCV 1b replicon system (Huh-luc); experiment: Antiviral combination studies with Compound 6, MacSynergy II
HCV genotype 1a replicon [9] = experiment: Antiviral combination studies with Compound 4, MacSynergy II; conditions: in combination with Compound 4, mean ± standard deviation
[10] = tested on: 1b Huh-luc replicon cells; experiment: Antiviral combination studies with Compound 5, MacSynergy II; format: cell-based, HCV
Method: Combination data were analyzed based on the Bliss Independence model using MacSynergy II software. Results of the combination assays were expressed as mean synergy and antagonism volumes (nM^2) calculated at 95% confidence from two independent experiments performed in triplicate.

[11] = tested on: Huh-7 cells carrying an HCV genotype 1a replicon; conditions: with 320 nM Compound 10 and the highest concentration of the listed compound
[12] = in combination with Compound 4, mean ± standard deviation
[13] = in combination with Compound 6, mean ± standard deviation
[14] = in combination with Compound 5, mean ± standard deviation

Structure (SMILES): CC[C@@H]1C[C@]1(NC(=O)[C@@H]1C[C@@H](Oc2cc(-c3csc(NC(C)C)n3)nc3c(Cl)c(OCCN4CCOCC4)ccc23)CN1C(=O)[C@@H](NC(=O)O[C@@H]1C[C@@H]2C[C@@H]2C1)C(C)(C)C)C(=O)O [Compound 3]
- Replicon RNA log drop (genotype 1b replicon RNA): −0.9 log
- Compound concentration able to induce replicon RNA 1-1.5 log drop in a 6 day assay (genotype 1b replicon RNA; genotype 1b replicon cells, 6 days): 26.25 nM
- Replicon RNA log drop (genotype 1b replicon RNA; single compound at the listed concentration, 6 days, relative to DMSO control (Table XIV)): −0.9 log
- Interaction (HCV genotype 1a replicon [1]): Additive
- Interaction (cytotoxicity) ([2]; in combination with Compound 4): Additivity (Additivity: ≤25 and >−25 nM^2%)
- Antagonism Volume (cytotoxicity) [2, 12]: 0 ± 0 nM^2%
- Synergy Volume (cytotoxicity) [2, 12]: 3 ± 5 nM^2%
- CC50 at 3 days [3]: > 22200 nM
- Uncured colony number [4]: 989
- CC50 at 3 days [5]: > 22200 nM
- EC50 (HCV genotype 1a replicon [6]): 49 ± 18 nM
- EC50 (HCV genotype 1a replicon [7]): 46 nM
- Interaction ([8]; in combination with Compound 6): Strong Synergy
- Antagonism Volume [8, 13]: −0.1 ± 0.2 nM^2
- Synergy Volume [8, 13]: 132 nM^2 and 132 ± 44 nM^2
- Antagonism Volume (HCV genotype 1a replicon [9]): −3 ± 2 nM^2%
- Synergy Volume (HCV genotype 1a replicon [9]): 26 ± 6 nM^2%
- Interaction ([10]; in combination with Compound 5): Additive
- Antagonism Volume [10, 14]: −2 ± 2 nM^2
- Synergy Volume [10, 14]: 19 ± 13 nM^2
- Cytotoxicity at Highest Concentration of Compound Combinations (% inhibition on cell growth) [11]: 2.0 ± 3.5%
